Measured values: patent publication US20230241167A1, “Use of Caveolin-1 Scaffolding Domain Peptides for Treating Disease and Disorders” (MUSC Foundation for Research Development, priority 2020, published 2023)
Square brackets hold non-standard residues; d marks the D form. Ends that are not written are not given here. Peptide text beside a SMILES is read from it.

What was measured:
[1] = tested on: Ang II-infused mice; assay: Angiotensin II-induced congestive heart failure (CHF) model; assay type: in vivo; conditions: for suppression of AngII-induced fibrosis in the heart (Col I deposition and HSP47 level) / suppression of AngII-induced microvascular leakage in the heart (IgG heavy chain level in the tissue): Western blot; for overall effectiveness of domains in the CHF model (summary of FIGS. 1-7): FIG. 8; for suppression of the effects of AngII on Heart Weight/Body Weight (HW/BW) ratio: young mice (3 months) infused with Ang II two weeks
Procedure: FIG. 1 provides an overview of an experiment using Full-Length CSD, 82-89, 88-95, and 94-101 (SEQ ID NO:1, SEQ ID NO:2, SEQ ID NO:3, and SEQ ID NO:4 respectively).
Young mice (3 months old) infused with Ang II or vehicle for two weeks received daily i.p. injections of CSD, the indicated subdomains or scrambled CSD (0.8 μmol/kg). Mice were evaluated by Echocardiography for changes in posterior wall thickness (pWTh), fractional shortening (FS), cardiac output (CO), ejection fraction (EF), and isovolumic relaxation time (IVRT). Significant changes are shown as ***p<0.001 for Sham+Veh vs AngII+Veh. Significant suppression of AngII-induced changes is shown as ^p<0.05, ^^p<0.01, and ^^^p<0.001 for AngII+Veh vs AngII+CSD or AngII+CSD subdomains. The number of mice used in each treatment are shown in the HW/BW data.
Young mice (3 months old) infused with Ang II or vehicle for two weeks received daily i.p. injections of the indicated subdomains of CSD. The results of a typical experiment for Col I and HSP47 (FIG. 4) and for microvascular leakage (FIG. 5) are shown in Western blots (2 to 3 mice per group). The data are quantified below (n=4). Significant changes are shown as *p<0.05 and **p<0.01 for Sham+Veh vs Ang II+Veh. Significant suppression of Ang II-induced changes by subdomains are shown as ^p<0.05, […], and ^^^p<0.001 for Ang II+Veh vs Ang II+CSD subdomains.
Young mice (3 months old) infused with Ang II or vehicle for two weeks received daily i.p. injections of W82-89. IgG heavy chain (IgGH) leakage and Col I accumulation are shown in Western blots. The actin loading control is present twice because IgGH was analyzed in the supernatant fraction of heart homogenate while Col I is found in the pellet fraction. In the quantitation (n=4), significant changes are shown as **p<0.01 and ***p<0.001 for Sham+Veh vs Ang II+Veh and ^^p<0.01 and ^^^p<0.001 for reversal of AngII-induced changes by W82-89.

[2] = tested on: bleomycin-treated mice; assay: Bleomycin-induced lung and skin fibrosis, treatments delivered by pump; assay type: in vivo; conditions: for bleomycin-induced lung fibrosis (Ashcroft score): treatment by pump over two weeks after one week bleomycin, n=6
Procedure: Experiments were conducted to examine the effect of unmodified CSD subdomains on lung and skin fibrosis. […] Pumps containing bleomycin or saline vehicle were implanted subcutaneously into mice. After one week, the pumps had emptied and were replaced with pumps designed to empty over two weeks containing the indicated treatments (n=6 per group). After these two weeks, the mice were sacrificed.
Skin in the vicinity of the pump outlet was harvested for measurement of the thickness of the dermis and the intradermal fat. ^^^p<0.001 for Saline/Vehicle vs Bleo/Vehicle. ***p<0.001, **p<0.01, *p<0.05 for Bleo/Vehicle vs Bleo/Peptide Treatments.

[3] = tested on: bleomycin-treated mice; assay: Bleomycin-induced lung and skin fibrosis, daily i.p. WCSD; assay type: in vivo
Procedure: Pumps containing bleomycin or saline vehicle were implanted subcutaneously into mice. After one week, the pumps had emptied. In addition, mice were injected i.p. daily as indicated, then sacrificed on day 22. All groups contained 4 mice.
Fibrocytes (CD45+/Col I+ cells) were quantified by Flow Cytometry. ECM proteins (Col I, Tenascin C), myofibroblast markers (HSP47, ASMA), and microvascular leakage (IgG Heavy Chain that remained in the tissue after perfusion) were quantified by Western blotting (n=4). Western blot data were quantified densitometrically following normalization to an actin loading control. The value in Saline treated mice was set to 1.0 Arbitrary Unit. ^^p<0.01, ^p<0.05 for Saline/Vehicle vs Bleo/Vehicle; *p<0.05 for Bleo/Vehicle vs Bleo/WCSD.

[4] = biological target: PDGFRβ (Homo sapiens, UniProt P09619); assay: Inhibition of purified kinases; conditions: purified kinase
[5] = biological target: cMet (Homo sapiens, UniProt P08581); assay: Inhibition of purified kinases; assay type: biochemical; conditions: purified kinase
[6] = biological target: VEGFR3 (Homo sapiens, UniProt P35916); assay: Inhibition of purified kinases; assay type: biochemical; conditions: purified kinase
[7] = biological target: VEGFR1 (Homo sapiens, UniProt P17948); assay: Inhibition of purified kinases; assay type: biochemical; conditions: purified kinase
[8] = biological target: PDGFRα (Homo sapiens, UniProt P16234); assay: Inhibition of purified kinases; conditions: purified kinase
[9] = biological target: VEGFR2 (Homo sapiens, UniProt P35968); assay: Inhibition of purified kinases; assay type: biochemical; conditions: purified kinase; nintedanib worked at much lower concentrations
[10] = biological target: Src (Homo sapiens, UniProt P12931); assay: Inhibition of purified kinases; assay type: biochemical; conditions: purified kinase; nintedanib worked at much lower concentrations
[11] = biological target: PKCα (Homo sapiens, UniProt P17252); assay: Inhibition of purified kinases; assay type: biochemical; conditions: purified kinase
[12] = biological target: T1, PKCε (Homo sapiens, UniProt Q02156); assay: Inhibition of purified kinases; assay type: biochemical; conditions: purified kinase
T1 sequence (Q02156 1-737): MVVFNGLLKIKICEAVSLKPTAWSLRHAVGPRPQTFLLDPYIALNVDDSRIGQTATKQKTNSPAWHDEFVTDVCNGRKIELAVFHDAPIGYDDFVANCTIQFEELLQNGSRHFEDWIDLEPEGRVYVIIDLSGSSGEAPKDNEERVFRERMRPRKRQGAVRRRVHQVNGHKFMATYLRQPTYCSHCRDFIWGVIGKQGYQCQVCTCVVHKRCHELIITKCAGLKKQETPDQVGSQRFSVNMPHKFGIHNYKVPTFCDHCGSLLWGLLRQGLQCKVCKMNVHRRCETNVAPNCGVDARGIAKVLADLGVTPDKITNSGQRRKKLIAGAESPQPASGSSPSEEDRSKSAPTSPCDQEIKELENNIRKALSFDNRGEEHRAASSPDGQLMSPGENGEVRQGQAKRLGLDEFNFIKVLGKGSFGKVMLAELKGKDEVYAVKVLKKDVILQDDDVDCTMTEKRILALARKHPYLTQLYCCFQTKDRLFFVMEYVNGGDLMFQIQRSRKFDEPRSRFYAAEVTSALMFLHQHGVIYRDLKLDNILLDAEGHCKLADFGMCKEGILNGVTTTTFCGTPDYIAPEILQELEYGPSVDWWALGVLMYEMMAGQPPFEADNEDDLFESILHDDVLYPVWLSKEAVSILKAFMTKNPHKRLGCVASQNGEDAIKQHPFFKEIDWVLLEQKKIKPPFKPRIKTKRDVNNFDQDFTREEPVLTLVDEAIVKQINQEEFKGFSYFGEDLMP

[13] = biological target: T2, TGFβR1 (Homo sapiens, UniProt P36897); assay: Inhibition of purified kinases; assay type: biochemical; conditions: purified kinase; nintedanib worked at much lower concentrations
T2 sequence (P36897 34-503): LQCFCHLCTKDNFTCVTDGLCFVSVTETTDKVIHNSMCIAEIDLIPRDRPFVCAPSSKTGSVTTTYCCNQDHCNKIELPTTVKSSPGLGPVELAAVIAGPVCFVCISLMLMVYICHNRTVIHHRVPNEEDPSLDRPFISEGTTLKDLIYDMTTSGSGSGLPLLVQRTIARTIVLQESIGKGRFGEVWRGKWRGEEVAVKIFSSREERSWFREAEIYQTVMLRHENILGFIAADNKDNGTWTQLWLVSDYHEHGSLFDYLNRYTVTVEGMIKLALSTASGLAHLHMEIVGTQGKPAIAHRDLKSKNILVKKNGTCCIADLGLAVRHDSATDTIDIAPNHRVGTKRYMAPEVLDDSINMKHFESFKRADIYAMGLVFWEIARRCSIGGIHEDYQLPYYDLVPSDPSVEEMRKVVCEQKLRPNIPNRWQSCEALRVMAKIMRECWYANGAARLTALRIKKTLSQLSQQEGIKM

[14] = young mice infused with Ang II two weeks, daily i.p. injections, echocardiography

Sequence of VEGFR1 (P17948 27-1338, species assumed): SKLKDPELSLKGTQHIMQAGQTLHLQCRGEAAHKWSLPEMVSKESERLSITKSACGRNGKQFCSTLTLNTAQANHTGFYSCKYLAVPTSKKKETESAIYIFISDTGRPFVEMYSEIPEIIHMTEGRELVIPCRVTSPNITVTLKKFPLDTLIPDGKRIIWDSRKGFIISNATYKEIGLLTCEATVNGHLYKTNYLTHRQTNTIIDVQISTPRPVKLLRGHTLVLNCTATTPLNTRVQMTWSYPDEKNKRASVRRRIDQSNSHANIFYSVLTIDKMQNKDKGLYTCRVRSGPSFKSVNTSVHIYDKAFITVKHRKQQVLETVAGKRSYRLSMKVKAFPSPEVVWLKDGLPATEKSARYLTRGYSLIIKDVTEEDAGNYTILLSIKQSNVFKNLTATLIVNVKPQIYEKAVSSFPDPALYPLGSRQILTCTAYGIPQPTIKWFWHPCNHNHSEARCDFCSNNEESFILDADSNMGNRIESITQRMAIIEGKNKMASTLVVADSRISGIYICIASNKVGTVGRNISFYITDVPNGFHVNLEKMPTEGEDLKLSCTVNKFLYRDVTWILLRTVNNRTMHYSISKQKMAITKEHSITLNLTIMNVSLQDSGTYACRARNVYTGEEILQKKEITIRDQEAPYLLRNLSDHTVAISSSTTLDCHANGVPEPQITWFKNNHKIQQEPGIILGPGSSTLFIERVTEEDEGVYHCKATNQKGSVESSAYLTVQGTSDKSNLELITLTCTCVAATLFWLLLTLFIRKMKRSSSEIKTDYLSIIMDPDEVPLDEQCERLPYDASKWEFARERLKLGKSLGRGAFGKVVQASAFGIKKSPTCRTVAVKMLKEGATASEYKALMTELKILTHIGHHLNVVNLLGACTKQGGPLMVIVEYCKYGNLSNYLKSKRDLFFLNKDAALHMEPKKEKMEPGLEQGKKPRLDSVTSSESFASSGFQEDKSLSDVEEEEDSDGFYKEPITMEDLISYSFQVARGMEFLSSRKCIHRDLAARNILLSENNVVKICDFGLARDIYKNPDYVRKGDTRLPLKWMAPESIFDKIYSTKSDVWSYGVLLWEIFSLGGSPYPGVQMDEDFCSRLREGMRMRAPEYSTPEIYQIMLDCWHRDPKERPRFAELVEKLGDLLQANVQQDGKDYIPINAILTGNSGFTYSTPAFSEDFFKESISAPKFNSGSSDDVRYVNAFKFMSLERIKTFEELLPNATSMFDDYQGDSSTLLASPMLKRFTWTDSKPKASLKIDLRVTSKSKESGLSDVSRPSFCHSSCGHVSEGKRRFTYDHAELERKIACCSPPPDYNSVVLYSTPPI
Sequence of VEGFR3 (P35916 25-1363, species assumed): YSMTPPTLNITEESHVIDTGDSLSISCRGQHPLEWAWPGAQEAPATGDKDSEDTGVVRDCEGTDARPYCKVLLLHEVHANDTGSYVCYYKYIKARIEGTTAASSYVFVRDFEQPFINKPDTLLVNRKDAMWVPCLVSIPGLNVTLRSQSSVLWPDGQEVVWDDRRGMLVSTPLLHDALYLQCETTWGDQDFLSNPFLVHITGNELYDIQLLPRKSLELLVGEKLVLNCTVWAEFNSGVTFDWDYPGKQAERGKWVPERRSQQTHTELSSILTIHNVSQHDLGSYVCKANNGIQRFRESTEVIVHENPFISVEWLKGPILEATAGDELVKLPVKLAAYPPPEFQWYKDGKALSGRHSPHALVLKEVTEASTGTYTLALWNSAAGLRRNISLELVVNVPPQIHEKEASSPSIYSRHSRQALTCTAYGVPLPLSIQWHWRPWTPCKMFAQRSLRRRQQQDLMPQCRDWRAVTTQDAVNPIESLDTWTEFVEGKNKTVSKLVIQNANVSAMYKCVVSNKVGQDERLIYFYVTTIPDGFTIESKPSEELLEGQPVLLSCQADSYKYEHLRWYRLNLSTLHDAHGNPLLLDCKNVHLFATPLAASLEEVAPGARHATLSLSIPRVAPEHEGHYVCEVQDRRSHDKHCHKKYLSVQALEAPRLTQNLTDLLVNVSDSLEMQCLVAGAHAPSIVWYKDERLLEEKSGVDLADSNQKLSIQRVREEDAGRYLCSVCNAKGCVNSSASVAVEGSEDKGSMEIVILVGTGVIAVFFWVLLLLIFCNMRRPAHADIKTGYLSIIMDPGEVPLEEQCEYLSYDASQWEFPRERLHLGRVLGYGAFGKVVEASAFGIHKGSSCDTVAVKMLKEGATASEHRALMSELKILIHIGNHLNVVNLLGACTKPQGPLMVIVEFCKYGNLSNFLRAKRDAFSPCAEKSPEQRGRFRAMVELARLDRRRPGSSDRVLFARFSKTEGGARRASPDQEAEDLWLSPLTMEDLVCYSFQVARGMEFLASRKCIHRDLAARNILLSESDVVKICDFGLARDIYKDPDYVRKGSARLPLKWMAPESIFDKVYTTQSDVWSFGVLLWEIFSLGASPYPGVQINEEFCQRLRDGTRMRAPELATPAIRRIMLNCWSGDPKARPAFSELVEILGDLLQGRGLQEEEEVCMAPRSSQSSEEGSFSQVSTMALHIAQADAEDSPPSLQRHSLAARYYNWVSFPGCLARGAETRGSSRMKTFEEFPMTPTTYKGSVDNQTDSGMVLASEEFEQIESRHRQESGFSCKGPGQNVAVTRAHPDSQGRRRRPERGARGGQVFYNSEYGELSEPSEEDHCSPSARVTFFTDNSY
Sequence of PDGFRβ (P09619 33-1106, species assumed): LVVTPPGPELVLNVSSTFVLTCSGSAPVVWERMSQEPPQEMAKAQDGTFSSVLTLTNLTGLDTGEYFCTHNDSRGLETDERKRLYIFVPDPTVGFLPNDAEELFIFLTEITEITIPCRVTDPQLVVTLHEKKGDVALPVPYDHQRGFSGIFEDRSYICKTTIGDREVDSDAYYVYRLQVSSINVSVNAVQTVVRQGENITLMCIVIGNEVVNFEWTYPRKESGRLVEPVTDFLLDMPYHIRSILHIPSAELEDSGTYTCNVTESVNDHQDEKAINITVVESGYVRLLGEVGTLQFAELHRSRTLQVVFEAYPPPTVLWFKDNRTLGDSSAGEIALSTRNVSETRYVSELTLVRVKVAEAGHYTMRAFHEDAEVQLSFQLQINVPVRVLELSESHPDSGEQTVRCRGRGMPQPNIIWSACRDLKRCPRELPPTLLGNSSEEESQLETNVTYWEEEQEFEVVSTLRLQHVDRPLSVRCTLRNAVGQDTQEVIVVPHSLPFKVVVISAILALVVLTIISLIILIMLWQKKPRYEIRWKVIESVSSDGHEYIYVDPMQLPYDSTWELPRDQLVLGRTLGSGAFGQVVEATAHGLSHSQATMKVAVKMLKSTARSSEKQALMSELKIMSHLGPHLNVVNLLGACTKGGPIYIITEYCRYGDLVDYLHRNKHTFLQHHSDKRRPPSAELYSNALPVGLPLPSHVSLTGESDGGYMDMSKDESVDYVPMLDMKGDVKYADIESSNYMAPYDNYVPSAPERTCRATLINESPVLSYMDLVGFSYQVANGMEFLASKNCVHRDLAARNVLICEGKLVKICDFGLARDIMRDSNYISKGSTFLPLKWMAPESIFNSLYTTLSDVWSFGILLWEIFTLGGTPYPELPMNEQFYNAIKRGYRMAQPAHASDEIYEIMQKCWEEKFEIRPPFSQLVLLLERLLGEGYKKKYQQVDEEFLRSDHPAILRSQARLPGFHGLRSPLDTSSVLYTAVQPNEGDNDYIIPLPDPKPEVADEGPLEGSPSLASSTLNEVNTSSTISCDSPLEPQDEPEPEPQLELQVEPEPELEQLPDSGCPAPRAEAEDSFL
Sequence of cMet (P08581 25-1390): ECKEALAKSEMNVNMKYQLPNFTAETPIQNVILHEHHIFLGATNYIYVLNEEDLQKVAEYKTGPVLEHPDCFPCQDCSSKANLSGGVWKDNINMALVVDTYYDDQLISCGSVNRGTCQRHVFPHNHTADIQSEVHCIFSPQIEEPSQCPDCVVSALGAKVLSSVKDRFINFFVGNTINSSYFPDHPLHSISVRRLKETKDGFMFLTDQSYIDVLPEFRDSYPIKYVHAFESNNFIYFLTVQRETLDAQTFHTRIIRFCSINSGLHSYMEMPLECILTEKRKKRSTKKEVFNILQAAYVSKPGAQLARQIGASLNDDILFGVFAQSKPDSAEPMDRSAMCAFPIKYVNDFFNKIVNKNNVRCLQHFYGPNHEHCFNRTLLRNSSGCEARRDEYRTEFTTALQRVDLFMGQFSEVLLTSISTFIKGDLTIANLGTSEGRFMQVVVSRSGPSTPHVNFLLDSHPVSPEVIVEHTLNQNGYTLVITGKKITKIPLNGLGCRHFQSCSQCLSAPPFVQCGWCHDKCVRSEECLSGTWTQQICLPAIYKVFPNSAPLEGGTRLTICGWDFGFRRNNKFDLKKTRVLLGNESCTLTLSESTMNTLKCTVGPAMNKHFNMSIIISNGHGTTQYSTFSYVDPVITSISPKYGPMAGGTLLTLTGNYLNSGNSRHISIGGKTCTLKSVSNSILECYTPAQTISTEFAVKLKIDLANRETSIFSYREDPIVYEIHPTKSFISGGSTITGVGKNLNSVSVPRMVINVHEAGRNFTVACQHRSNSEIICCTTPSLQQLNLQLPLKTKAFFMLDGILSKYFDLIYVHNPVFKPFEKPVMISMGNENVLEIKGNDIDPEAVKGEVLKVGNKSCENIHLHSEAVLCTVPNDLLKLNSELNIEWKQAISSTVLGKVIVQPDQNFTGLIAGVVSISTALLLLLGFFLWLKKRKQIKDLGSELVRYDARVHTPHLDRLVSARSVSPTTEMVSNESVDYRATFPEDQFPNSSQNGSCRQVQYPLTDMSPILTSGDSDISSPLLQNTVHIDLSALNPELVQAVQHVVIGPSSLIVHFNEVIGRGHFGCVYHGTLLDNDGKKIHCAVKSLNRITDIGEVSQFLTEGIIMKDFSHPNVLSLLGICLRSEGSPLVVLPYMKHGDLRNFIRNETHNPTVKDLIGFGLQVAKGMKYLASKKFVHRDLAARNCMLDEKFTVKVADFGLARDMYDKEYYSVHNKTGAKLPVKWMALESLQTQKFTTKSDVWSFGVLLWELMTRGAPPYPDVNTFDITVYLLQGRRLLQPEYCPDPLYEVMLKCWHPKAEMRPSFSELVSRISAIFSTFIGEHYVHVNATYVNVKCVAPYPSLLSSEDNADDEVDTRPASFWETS

## 82-89: CSD subdomain DGIWKASF-NH2
[1]; daily i.p. injections
  suppression of AngII-induced fibrosis in the heart (Col I deposition and HSP47 level): significant beneficial effect
  suppression of AngII-induced microvascular leakage in the heart (IgG heavy chain level in the tissue): almost completely suppressed
  suppression of the effects of AngII on Heart Weight/Body Weight (HW/BW) ratio: essentially equally effective as 88-95
[1]
  overall effectiveness of domains in the CHF model (summary of FIGS. 1-7): active
[1]; [14]
  suppression of the effects of AngII on Ejection Fraction (EF), Fractional Shortening (FS), Isovolumic Relaxation Time (IVRT): significant beneficial effect
[2]; Example 4 summary
  activity across all readouts of the bleomycin model (lung, skin, monocyte migration): most active of the subdomains tested
[2]
  bleomycin-induced lung fibrosis (Ashcroft score): suppression

## 88-95: CSD subdomain SFTTFTVT-NH2
[1]; daily i.p. injections
  suppression of AngII-induced fibrosis in the heart (Col I deposition and HSP47 level): most effective CSD subdomain
  suppression of AngII-induced microvascular leakage in the heart (IgG heavy chain level in the tissue): almost completely suppressed
  suppression of the effects of AngII on Heart Weight/Body Weight (HW/BW) ratio: most effective CSD subdomain
[1]
  overall effectiveness of domains in the CHF model (summary of FIGS. 1-7): most effective Dimethyl sulfoxide (DMSO)-solubilized domain tested
[1]; [14]
  suppression of the effects of AngII on Ejection Fraction (EF), Fractional Shortening (FS), Isovolumic Relaxation Time (IVRT): most effective CSD subdomain
  suppression of the effects of AngII on Left Ventricle (LV) Mass and Posterior Wall Thickness (pWTh): most effective CSD subdomain
[2]
  bleomycin-induced lung fibrosis (Ashcroft score): suppression

## 94-101: CSD subdomain VTKYWFYR-NH2
[2]
  bleomycin-induced lung fibrosis (Ashcroft score): suppression

## CC[C@H](C)[C@H](NC(=O)CNC(=O)[C@H](CC(=O)O)NC(=O)[C@@H](CCCCN)NC(=O)[C@@H](CCCCN)NC(C)=O)C(=O)N[C@@H](Cc1c[nH]c2ccccc12)C(=O)N[C@@H](CCCCN)C(=O)N[C@@H](C)C(=O)N[C@@H](CO)C(=O)N[C@@H](Cc1ccccc1)C(=O)N[C@H](C(=O)N[C@H](C(=O)N[C@@H](Cc1ccccc1)C(=O)N[C@H](C(=O)N[C@H](C(=O)N[C@H](C(=O)N[C@@H](CCCCN)C(=O)N[C@@H](Cc1ccc(O)cc1)C(=O)N[C@@H](Cc1c[nH]c2ccccc12)C(=O)N[C@@H](Cc1ccccc1)C(=O)N[C@@H](Cc1ccc(O)cc1)C(=O)N[C@@H](CCCNC(=N)N)C(=O)N[C@H](CCCCN)C(=O)N[C@H](CCCCN)C(N)=O)[C@@H](C)O)C(C)C)[C@@H](C)O)[C@@H](C)O)[C@@H](C)O [WCSD] (Ac-[dK][dK]DGIWKASFTTFTVTKYWFYR[dK][dK]-NH2)
[3]; Flow Cytometry
  fibrocytes (CD45+/Col I+ cells) in lung: almost completely suppressed by WCSD down to the levels in control, saline-treated mice
[3]; WCSD treatment beginning on day 8
  bleomycin-induced loss of the transdermal adipose layer in the skin: suppresses the almost complete loss of the transdermal adipose layer
[3]; Western blotting, n=4
  ECM proteins (Col I, Tenascin C) in lung: almost completely suppressed by WCSD down to the levels in control, saline-treated mice
  microvascular leakage (IgG Heavy Chain remaining in the tissue after perfusion) in lung: almost completely suppressed by WCSD down to the levels in control, saline-treated mice
  myofibroblast markers (HSP47, ASMA) in lung: almost completely suppressed by WCSD down to the levels in control, saline-treated mice
[3]; bleomycin pump, daily i.p. WCSD
  survival: outstanding beneficial effect on survival
[3]; bleomycin, treatment also delayed until day 8
  lung fibrosis and inflammatory cell infiltration (histology): suppressed by WCSD even when treatment is delayed until day 8

## COC(=O)c1ccc2c(c1)NC(=O)/C2=C(\Nc1ccc(N(C)C(=O)CN2CCN(C)CC2)cc1)c1ccccc1 [nintedanib]
[4]
  inhibition of PDGFRβ: inhibits
[5]
  inhibition of cMet: has no effect
[6]
  inhibition of VEGFR3: inhibits
[7]
  inhibition of VEGFR1: inhibits
[8]
  inhibition of PDGFRα: inhibits
[9]
  inhibition of VEGFR2: inhibit
[10]
  inhibition of Src: inhibit
[11]
  inhibition of PKCα: has no effect
[12]
  inhibition of PKCε: has no effect
[13]
  inhibition of TGFβR1: inhibit
